What was measured:
[1] = tested on: lymphoblasts of CDG-Ia diseases; assay: inhibition of incorporation of 2-[3H]mannose into cellular glycoconjugates ("radioactivity"); type: cell-based, human; details: dose of 500 μM; for Radioactivity (inhibition, by competition, of the binding of 2-[3H]mannose-1 phosphate): percentage relative to the controls, lymphoblasts of CDG-Ia, 5 trials per product; for effectiveness in inhibiting the incorporation of radioactive mannose into glycoproteins (in words): lymphoblasts, comparison between products
Experimental: (§1) The compounds of formula I, II and III were tested as prodrugs (i.e. as intracellular sources of Man-1 P), on the one hand, in order to evaluate their toxicity and, on the other hand, in order to assess their capacity to inhibit the incorporation of 2-[^3H]mannose into cellular glycoconjugates. Indeed, while they can generate Man-1 P in cells, it will be in competition with 2-[^3H]mannose-1 phosphate for entering the pathway for biosynthesis of glycoproteins (see Eklund, E. A., et al. cited above).
(§2) The products were tested (5 trials per product and per dose) on lymphoblasts of CDG-Ia diseases and their activities (“radioactivity”, i.e. inhibition, by competition, of the binding of 2-[^3H]mannose-1 phosphate; and cell “toxicity”) were assessed as a percentage relative to the controls (10 trials).

[2] = tested on: lymphoblasts of CDG-Ia diseases; assay: cell toxicity on lymphoblasts; type: cell-based; details: dose of 500 μM; for cell mortality / toxicity (in words): lymphoblasts, comparison with CP1, CP3 and CP6; for Toxicity (cell toxicity): percentage relative to the controls, lymphoblasts of CDG-Ia, 5 trials per product
Experimental: as §1, §2

| Compound | Radioactivity (inhibition, by competition, of the binding of 2-[3H]mannose-1 phosphate) [1] | cell mortality / toxicity (in words) [2] | Toxicity (cell toxicity) [2] | effectiveness in inhibiting the incorporation of radioactive mannose into glycoproteins (in words) [1] |
| --- | --- | --- | --- | --- |
| CC(=O)OC[C@H]1O[C@H](OP(=O)(OCOC(=O)C(C)(C)C)OCOC(=O)C(C)(C)C)[C@@H](OC(C)=O)[C@@H](OC(C)=O)[C@@H]1OC(C)=O [CP1, di(pivaloyloxymethyl) (2,3,4,6-tetra-O-acetyl)-α-D-mannopyranosyl-1] phosphate] | 92% | at least a doubling of cell mortality | 210% | – |
| CC(C)(C)C(=O)OCOP(=O)(OCOC(=O)C(C)(C)C)O[C@H]1O[C@H](COC(=O)C(C)(C)C)[C@@H](OC(=O)C(C)(C)C)[C@H](OC(=O)C(C)(C)C)[C@@H]1OC(=O)C(C)(C)C [CP3, di(pivaloyloxymethyl) (2,3,4,6-tetra-O-pivaloyl-α-D-manno-pyranosyl-1) phosphate] | 90% | at least a doubling of cell mortality | 205% | – |
| CCOC(=O)OC[C@H]1O[C@H](OP(=O)(OCOC(C)=O)OCOC(C)=O)[C@@H](OC(=O)OCC)[C@@H](OC(=O)OCC)[C@@H]1OC(=O)OCC [CP6, di(acetyloxymethyl) (2,3,4,6-tetra-O-ethyloxycarbonyl)-α-D-manno-pyranosyl-1) phosphate] | 91% | at least a doubling of cell mortality | 201% | – |
| Benzyl di(2,3,4,6-tetra-O-isobutyryl-α-D-mannopyranosyl-1) phosphate [Ex. 12] | 25% | a lot less toxic | 112% | less effective than CP1, CP3 and CP6 |
| Di(2,3,4,6-tetra-O-isobutyryl-α-D-mannopyranosyl-1) hydrogen phosphate [Ex. 4] | 100% | less toxic | 100% | therapeutically less effective than Ex. 5, Ex. 11, Ex. 12 and Ex. 13 |
